# Results as given in patent publication US6087119A, “Method for determining the catalytic activity of factor IXa” (Roche Diagnostics GmbH, priority 1996, dated 2000).
# Square brackets hold non-standard residues; d marks the D form. Peptide text beside a SMILES is read from it. * marks the point of attachment. dChg = N[C@@H](C(=O)O)C1CCCCC1; pNA = O=[N+]([O-])c1ccc(N*)cc1; Ms = CS(=O)(=O)*
# How the values were obtained:
# rFIXa (human) = rFIXa (human) (Homo sapiens, UniProt P00740); assay: Kinetics of cleavage of chromogenic peptide substrates by rFIXa with ethylene glycol (Lineweaver Burk); format: biochemical; parameters: coding for the FIX protease domain from amino acid position 181 to 415; Met (ATG start codon) (N); made in house; details: pH 7.4
# Description: (§1) MeSO2 -D-HHT-Gly-Arg-pNA (0.102-1.02 mmol/l)
# 0.48 μmol/l rFIXa (human)
# MOC-D-Nle-Gly-Arg-pNA (0.102-1.02 mmol/l)
# MeSO2 -D-CHG-Gly-Arg-pNA (0.102-1.02 mmol/l)
# 0.28 μmol/l rFIXa (human)
# (§2) The kinetic constants (Kcat /Km) were determined graphically according to Lineweaver Burk (Km and Kcat cannot be determined separately since the straight lines go through the origin).
# native FIXa (human) = native FIXa (human) (Homo sapiens, UniProt P00740); assay: Kinetics of cleavage of chromogenic peptide substrate by native FIXa with ethylene glycol (Lineweaver Burk); format: biochemical; parameters: 0.14 μmol/l native FIXa (human); details: native FIXa 0.29 μmol/l, pH 7.4
# Description: as §1
# 0.29 μmol/l native FIXa (human)
# as §2
# Chain of native FIXa (human) (P00740 227-461 limits assumed): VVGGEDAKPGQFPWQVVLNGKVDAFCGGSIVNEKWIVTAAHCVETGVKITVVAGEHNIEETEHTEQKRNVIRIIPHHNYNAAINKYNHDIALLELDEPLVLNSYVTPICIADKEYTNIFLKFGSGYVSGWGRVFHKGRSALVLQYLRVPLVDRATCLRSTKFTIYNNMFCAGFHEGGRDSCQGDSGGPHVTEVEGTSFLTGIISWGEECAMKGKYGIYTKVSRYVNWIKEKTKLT
# Chain of native FIXa (human) (P00740 47-191 partner limits assumed): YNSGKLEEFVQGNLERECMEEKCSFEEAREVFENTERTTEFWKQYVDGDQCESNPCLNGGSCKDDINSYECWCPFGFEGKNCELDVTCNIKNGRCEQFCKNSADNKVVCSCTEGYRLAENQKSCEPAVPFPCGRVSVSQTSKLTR
# Chain of rFIXa (human) (P00740 227-461): as the sequence (P00740 227-461 limits assumed) above
# Chain of rFIXa (human) (P00740 131-226): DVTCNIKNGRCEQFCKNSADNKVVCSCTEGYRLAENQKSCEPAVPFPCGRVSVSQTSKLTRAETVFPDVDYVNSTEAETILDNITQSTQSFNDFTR
"kkat /Km (rFIXa (human); substrate MeSO2-D-CHG-Gly-Arg-pNA, rFIXa […], 8% ethylene glycol)","kkat /Km (rFIXa (human); substrate MeSO2-D-CHG-Gly-Arg-pNA, rFIXa […], 16% ethylene glycol)","kkat /Km (rFIXa (human); substrate MeSO2-D-CHG-Gly-Arg-pNA, rFIXa […], 25% ethylene glycol)","kkat /Km (rFIXa (human); substrate MeSO2-D-CHG-Gly-Arg-pNA, rFIXa […], 33% ethylene glycol)","kkat /Km (rFIXa (human); substrate MeSO2-D-CHG-Gly-Arg-pNA, rFIXa […], 41% ethylene glycol)","kkat /Km (rFIXa (human); substrate MeSO2-D-CHG-Gly-Arg-pNA, rFIXa […], 50% ethylene glycol)",kkat /Km (native FIXa (human); 8% ethylene glycol),kkat /Km (native FIXa (human); 16% ethylene glycol),kkat /Km (native FIXa (human); 25% ethylene glycol),kkat /Km (native FIXa (human); 33% ethylene glycol),kkat /Km (native FIXa (human); 41% ethylene glycol),kkat /Km (native FIXa (human); 50% ethylene glycol),"kkat /Km (rFIXa (human); rFIXa 0.48 μmol/l, 8% ethylene glycol)","kkat /Km (rFIXa (human); rFIXa 0.48 μmol/l, 16% ethylene glycol)","kkat /Km (rFIXa (human); rFIXa 0.48 μmol/l, 25% ethylene glycol)","kkat /Km (rFIXa (human); rFIXa 0.48 μmol/l, 33% ethylene glycol)","kkat /Km (rFIXa (human); rFIXa 0.48 μmol/l, 41% ethylene glycol)","kkat /Km (rFIXa (human); rFIXa 0.48 μmol/l, 50% ethylene glycol)",Compound
637 M⁻¹ s⁻¹,1974 M⁻¹ s⁻¹,2880 M⁻¹ s⁻¹,3480 M⁻¹ s⁻¹,1929 M⁻¹ s⁻¹,576 M⁻¹ s⁻¹,,,,,,,,,,,,,"CS(=O)(=O)N[C@@H](C(=O)NCC(=O)N[C@@H](CCCNC(=N)N)C(=O)Nc1ccc([N+](=O)[O-])cc1)C1CCCCC1 [MeSO2 --D--CHG--Gly--Arg--pNA, MeSO2 -D-CHG-Gly-Arg-pNA] (Ms-[dChg]-Gly-Arg-pNA)"
,,,,,,299 M⁻¹ s⁻¹,737 M⁻¹ s⁻¹,1169 M⁻¹ s⁻¹,1395 M⁻¹ s⁻¹,922 M⁻¹ s⁻¹,390 M⁻¹ s⁻¹,348 M⁻¹ s⁻¹,515 M⁻¹ s⁻¹,1018 M⁻¹ s⁻¹,1018 M⁻¹ s⁻¹,692 M⁻¹ s⁻¹,172 M⁻¹ s⁻¹,"CS(=O)(=O)N[C@H](CC1CCC(O)CC1)C(=O)NCC(=O)N[C@@H](CCCNC(=N)N)C(=O)Nc1ccc([N+](=O)[O-])cc1 (stereo partly drawn) [MeSO2 --D--HHT--Gly--Arg--pNA, MeSO2 -D-HHT-Gly-Arg-pNA]"
